According to patent publication US12403168B1, “Method for producing a plant-based extract composition having the effect of enhancing nutrition and immunity” (priority 2024, dated 2025):

How the values were obtained:
Type in all cases: in vivo
male (Swiss albino) mice [1] = test: Cellular immune response (delayed hypersensitivity), ovalbumin mouse paw edema; conditions: CY (+) mice, cyclophosphamide 150 mg/kg i.p., composition 200 100 mg/kg/day, levamisole 25 mg/kg oral
Description: (§1) Test subjects: the experiment was performed on healthy adult male (Swiss albino) mice, 5-6 weeks old, weighing 25±2 grams. They were nurtured to stabilize for 1 week before conducting the experiment at room temperature (27° C.-28° C.). They were fed with synthetic pellets for mice, and the drinking water was tap water.
(§2) Test sample: the composition 200 which is obtained from the example 1, and the control sample used distilled water.
(§3) Male (Swiss albino) mice were immunodeficient by intraperitoneally administering a single dose of cyclophosphamide (150 mg/kg body weight) on the first day and then orally administering the test samples continuously for 5 days.
(§4) The experiment for immune-enhancing of the composition 200 by arrangement total of 60 male mice was used for experimental (23-25 g) divided into six treatments listed in Table 5 below.
(§5) [formula] • wherein Pcq is the weight of the organ; Pct is the body weight of the mouse at the time of survey. 3) Leukocyte Count and Percentage of Leukocyte Types; • Collected tail vein blood from mice on the 5th day after CY injection. […] On the 14th day, sensitization was induced by tail vein injection with ovalbumin at a dose of 0.5 mg/kg mouse body weight. […] Measure the volume of the mouse paw at 4 hours (V1) and 24 hours (V2) after the second ovalbumin injection. The left paw that was not injected was used as the reference (Vo). […]

male (Swiss albino) mice [2] = test: Leukocyte count and percentage of leukocyte types; conditions: CY (+) mice, 5th day after CY injection 150 mg/kg i.p.; composition 200 100 mg/kg/day, levamisole 25 mg/kg oral
Description: as §1, §2, §3, §4
as §5, with “(Vo). Calculate the percentage of mouse paw edema using the formula:” for “(Vo).”

male (Swiss albino) mice [3] = test: Relative weight of organs: liver, spleen, and thymus; conditions: CY (+) mice, 10th day after cyclophosphamide 150 mg/kg i.p.; composition 200 100 mg/kg/day, levamisole 25 mg/kg oral
Description: as §1, §2, §3, §4
The relative weights of the organs were calculated using the following formula:
as §5, with “(Vo). Calculate the percentage of mouse paw edema using the formula:” for “(Vo).”

c1ccc([C@H]2CN3CCSC3=N2)cc1 [levamisole]
% V4h, percentage of the mouse paw edema after 4 hours (male (Swiss albino) mice [1]; 4 hours after second ovalbumin injection): 81.27 ± 7.52% | % V24 h, percentage of the mouse paw edema after 24 hours (male (Swiss albino) mice [1]; 24 hours after second ovalbumin injection): 38.28 ± 7.12% | % Lymphocyte (male (Swiss albino) mice [2]): 59.56 ± 4.42% | % Monocyte (male (Swiss albino) mice [2]): 14.06 ± 3.64% | % Neutrophil (male (Swiss albino) mice [2]): 10.81 ± 1.18% | relative weight of liver (male (Swiss albino) mice [3]): 5.074 ± 0.189 g % | relative weight of spleen (male (Swiss albino) mice [3]): 0.343 ± 0.031 g % | relative weight of thymus (male (Swiss albino) mice [3]): 0.073 ± 0.013 g %
